Test results from publication PMC6013775, “Inhibition of the key enzyme of sialic acid biosynthesis by C6-Se modified N-acetylmannosamine analogs” (Chemical Science, 2016).
“Also recorded” adds a separate entry of the source.

Columns and labels:
HepG2 cells = tested on: HepG2 cells; design: method as in PMID 1312935; conditions: 1 mM final concentration; cited from earlier work
cell surface sialylation = tested on: cell surface sialylation; design: method as in PMID 25278018; conditions: 500 μM final concentration in culture medium; cited from earlier work
purified ManNAc kinase = tested on: purified ManNAc kinase; design: method as in PMID 12067740, PMID 15368395, PMID 22343627; conditions: 5 mM final concentration; cited from earlier work
[1] = tested on: UDP-GlcNAc-2-epimerase/MNK kinase; design: method as in PMID 12067740, PMID 15368395, PMID 22343627; conditions: 300 μM; cited from earlier work
[2] = target: T1, human MNK (N-acetylmannosamine kinase) (Homo sapiens, UniProt Q9Y223); assay: MNK activity, coupled optical assay based on NADH consumption; assay type: biochemical; conditions: for IC50: purified human MNK, ManNAc 125 μM, ATP, means ± SEM, read-out: IC50 for MNK inhibition
T1 construct: His; made in house; host or cells: Escherichia coli BL21-CodonPlus (DE3)-RIL
T1 sequence (Q9Y223 406-722 limits assumed): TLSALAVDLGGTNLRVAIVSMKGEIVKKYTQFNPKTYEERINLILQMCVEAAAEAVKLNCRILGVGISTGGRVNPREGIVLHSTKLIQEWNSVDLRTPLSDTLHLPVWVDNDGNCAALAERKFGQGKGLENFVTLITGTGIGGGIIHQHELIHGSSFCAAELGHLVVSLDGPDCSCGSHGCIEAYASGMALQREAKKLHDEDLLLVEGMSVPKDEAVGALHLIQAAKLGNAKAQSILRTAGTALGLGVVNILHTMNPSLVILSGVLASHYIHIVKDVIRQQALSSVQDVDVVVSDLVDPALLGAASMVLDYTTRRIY
Protocol: N-Acetylmannosamine kinase and N-acetylglucosamine kinase expression and […]
Human N-acetylmannosamine kinase (MNK) was expressed and purified using an established method.1 Therefore, his-tagged MNK was expressed in BL21-CodonPlus (DE3)-RIL Escherichia coli (Stragene). Purification was performed by Ni-NTA affinity chromatography, and subsequently size exclusion chromatography on a SuperdexTM HighLoad 16/600 column (GE Healthcare). […]
To evaluate their purity, protein samples were mixed with SDS-PAGE sample buffer, denatured at 90 °C for 1 min and separated by a 10% SDS-PAGE gel. Proteins were visualized with Coomassie G-250 staining solution (Biorad), and PageRuler Prestained Plus (Biorad) was used as a marker (Figure S1 ).
Figure S1. SDS-PAGE of His-tagged MNK (His-MNK) and GST-tagged GNK
(GST-GNK) after affinity chromatography and size exclusion chromatography.
Apparent molecular masses given by the marker are indicated on the left side.
1 J. Martinez, L. D. Nguyen, S. Hinderlich, R. Zimmer, E. Tauberger, W. Reutter, W. Saenger, H. Fan
2 W.A. Weihofen, M. Berger, H. Chen, W. Saenger, and S. Hinderlich, J. Mol. Biol., 2006, 364, 388.
(1 picture or pasted object on this page, not shown here)
Enzyme activity and inhibition studies using N-acetylmannosamine kinase, N-acetylglucosamine kinase and yeast hexokinase
Evaluation MNK activity in presence of the compounds 11, 12, 14b, 16b and 18b The effects of compounds 11, 12, 14b, 16b, or 18b on MNK enzyme activity were evaluated using a coupled optical assay. 55 µl reaction mixture contained the following buffers and reagents: 39.5 µl buffer A (65 mM MgCl2, 200 mM Tris-HCl, pH 8.1), 5 µl ATP (50 mM), 3.5 µl NADH (30 mM), 2 µl phosphoenolpyruvate (100 mM), 2 U pyruvate-kinase, 2 U lactate-dehydrogenase, 5 µl ManNAc of varying concentrations. Subsequently, 10 µl of the compounds 11, 12, 14b, 16b and 18b were added in varying concentrations. The reaction was initiated by adding 0.6 µg MNK in 35 µL buffer B (10 mM Tris-HCl, 150 mM NaCl, pH 8.0). Samples were incubated at 37°C. Spectrophotometric measurements of NADH concentration was performed at 340 nm. Results obtained were normalized to blanks, consisting of 55 µl reaction mixture, 10 µl H 2O and 35 µl buffer B without MNK.
GNK and hexokinase inhibition assays using compound 14b
To evaluate the specificity of the inhibitor 14b towards other sugar kinases, we performed further inhibition experiments using human GNK and hexokinase (HK) from yeast (Sigma, H-5000). 39.5 µl Buffer A (see above), 5 µl ATP (50 mM), 3.5 µl NADH (30 mM), 2 µl phosphoenolpyruvate (100 mM), 2 U pyruvate-kinase, 2 U lactate-dehydrogenase, 5 µl GlcNAc (7.5 mM, for GNK experiments), or 5 µl ManNAc (7.5 mM, for GNK experiments), or glucose (5 mM, for HK experiments), and 10 µl 14b (varying concentrations) were mixed with either 1 µg GNK or 0.2 µg HK in 35 µL buffer B. The decrease of NADH was measured in a spectrophotometer […]
5 mM for HK activity, respectively (Figure S2).
Figure S2. Inhibition of GNK and HK activity by 14b. Values are means ± SEM of […]

Jurkat cells [3] = assay: Cell surface sialylation, 6'-sialyl-LacNAc by FITC-PSL flow cytometry; assay type: cell-based; conditions: 72 h
Jurkat cells [4] = conditions: human, 72 h, 100 μM

## CO[C@H]1[C@H](O)[C@@H](CO)OC(O)[C@@H]1NC(C)=O (stereo partly drawn) [Compound 1, 3-O-methyl-N-acetyl-glucosamine]
HepG2 cells
  reduction of incorporation rate of N-GlcNAc and N-ManNAc into glycoproteins: 70%

## COC1C(O)C(CO)OC(O)C1NC(C)=O (stereo not drawn) [Compound 2]
Cell surface sialylation
  cell surface sialylation reduced to: 20%

## CC(=O)NC1C(O)OC(COC(C)=O)C(O)C1O (stereo not drawn) [Compound 3, 6-O-Ac-ManNAc]
Purified ManNAc kinase
  inhibition of the enzyme: 60%

## CC(=O)NC1C(OP(=O)(O)OP(=O)(O)OCC(C=O)OC(C=O)n2ccc(=O)[nH]c2=O)OC(CO)C(O)C1O (stereo not drawn) [Compound 7, 2′,3′-dialdehydo-UPD-N-acetylglucosamine]
[1]
  inhibition of the enzyme: 93%

## CC(=O)N[C@@H]1C(O)O[C@H](CS)[C@@H](O)[C@@H]1O (stereo partly drawn) [Compound 11]
[2]
  IC50: > 10 mM

## CC(=O)N[C@@H]1C(O)O[C@H](CSSC[C@H]2OC(O)[C@@H](NC(C)=O)[C@@H](O)[C@@H]2O)[C@@H](O)[C@@H]1O (stereo partly drawn) [Compound 12]
[2]; MNK IC50 ratio
  fold higher IC50 in comparison to 14b: approximately 500 fold
[2]
  IC50: 4.2 mM

## CC(=O)N[C@@H]1C(OC(C)=O)O[C@H](C[Se][Se]C[C@H]2OC(OC(C)=O)[C@@H](NC(C)=O)[C@@H](OC(C)=O)[C@@H]2OC(C)=O)[C@@H](OC(C)=O)[C@@H]1OC(C)=O (stereo partly drawn) [Compound 14a]
Jurkat cells [3]; 50 μM in cell culture medium
  reduction of 6'-sialyl-LacNAc entity: approximately 85%
Jurkat cells [4]
  reduction of cell viability: approximately 70%

## CC(=O)N[C@@H]1C(OC(C)=O)O[C@H](C[Se]C[C@H]2OC(OC(C)=O)[C@@H](NC(C)=O)[C@@H](OC(C)=O)[C@@H]2OC(C)=O)[C@@H](OC(C)=O)[C@@H]1OC(C)=O (stereo partly drawn) [Compound 16a]
Jurkat cells [3]; tested concentrations up to 50 μM
  effect on cell surface sialylation: no visible effect; also recorded: did not alter cell surface sialylation

## CC(=O)N[C@@H]1C(O)O[C@H](C[Se]C[C@H]2OC(O)[C@@H](NC(C)=O)[C@@H](O)[C@@H]2O)[C@@H](O)[C@@H]1O (stereo partly drawn) [Compound 16b]
[2]
  IC50: 3 mM

## CCCC[Se]C[C@H]1OC(O)[C@@H](NC(C)=O)[C@@H](O)[C@@H]1O (stereo partly drawn) [Compound 18b]
[2]
  IC50: 1.9 mM
